Experimental data from US20140220100A1, “VACCINE COMPOSITION FOR TRANSDERMAL ADMINISTRATION” (NITTO DENKO CORPORATION, priority 2013, published 2014).

tested on: IFN-γ-producing cells (spleen cells co-cultured with antigen peptide); experiment: Immunity Induction Test 1 in mouse (liquid formulation for external use), ELISPOT; format: in vivo; details: summary of Tables 1, 2 and 4; transdermal HER2/neu E75 peptide vaccine composition
Protocol: A cellulose non-woven fabric (area 0.8 cm^2) was attached to a middle part of an adhesive tape for fixing to prepare a composite substrate. The non-woven fabric part of the composite substrate was immersed with 67 μL of the liquid formulation for external use. Thus a sample for immunity induction test was prepared.
The liquid formulations for external use prepared as above described were used to perform an immunity induction test using a model mouse for immunological evaluation. The immunity induction level was evaluated by ELISPOT method. Specifically, the hair of the back skin of a mouse was cut, and the mouse was kept in a period for recovering from the skin damage. Thereafter, each sample was administered to the back skin of the mouse for a predetermined period, and then removed. After keeping the mouse for a predetermined day, the level of the cellular immunity induction specific for the antigen was evaluated. On a predetermined day after the administration, the spleen of the mouse was excised to prepare a suspension of the spleen cells. Spleen cells (3×10^6 cells/well) and an antigen peptide (100 μM) were added together with a culture solution into a well of ELISPOT plate containing an immobilized anti-mouse IFN-γ […], and co-cultured at 37° C. in 5% CO2 for 20 hours. The spot number of IFN-γ-producing cells was evaluated by ELISPOT method (the number of the spot/3×10^6 cells). The dosage of the liquid formulation for external use was all 67 μL as described above, and the administration was performed once (24 hr/week), the spleen was excised 6 days after the administration.
The results of the immunity induction test, and the measurement results of TSLP level and transepidermal water loss are shown in Table 1.

| SMILES | promotion of induction of cellular immunity by addition of a pharmacologically acceptable acid as second cellular immunity induction promoter |
| --- | --- |
| CC(O)C(=O)O (stereo not drawn) [lactic acid] | effective |
| CCCCCCCCCCCCCC(=O)O [myristic acid] | effective |
| O=C(O)CC(O)C(=O)O (stereo not drawn) [malic acid] | effective |
| CCCCCCCCCC(=O)O [decanoic acid] | effective |
| CC(C)CCCCCCCCCCCCCCC(=O)O [isostearic acid] | effective |
| CS(=O)(=O)O [methanesulfonic acid] | effective |
| CCCCCCCCCCCC(=O)O [lauric acid] | effective |
| CCCCCCCCCCCCCCCC(=O)O [palmitic acid] | effective |
| CCCCCCCC/C=C\CCCCCCCC(=O)O [oleic acid] | effective |
| O=C(O)c1ccccc1O [salicylic acid] | effective |
| CCCCCCCCCCCCCCCCCC(=O)O [stearic acid] | effective |
| O=C(O)/C=C\C(=O)O [maleic acid] | effective |
